Key:
ZEAMX [1] = test: Drought stress test on crop plants in greenhouse, spray application; assay type: in vivo, Zea mays; settings: efficacy = percentage reduction in intensity of damage, mean of three results
Protocol: (§1) Seeds of monocotyledonous and dicotyledonous crop plants were laid out in sandy loam in wood-fiber pots, covered with soil and cultivated in a greenhouse under good growth conditions. The test plants were treated at the early leaf stage (BBCH10-BBCH13). To ensure uniform water supply before commencement of stress, the potted plants were supplied with the maximum amount of water immediately beforehand by dam irrigation and, after application, transferred in plastic inserts in order to prevent subsequent, excessively rapid drying. The inventive compounds, formulated in the form of wettable powders (WP), wettable granules (WG), suspension concentrates (SC) or emulsion concentrates (EC), were sprayed onto the green parts of the plants as an aqueous suspension at an equivalent water application rate of 600 l/ha with addition of 0.2% wetting agent (agrotin). Substance application is followed immediately by stress treatment of the plants (cold or drought stress). For cold stress treatment, the plants were kept under the following controlled conditions: • “day”: 12 hours with illumination at 8° C. • “night”: 12 hours without illumination at 1° C.
(§2) Drought stress was induced by gradual drying out under the following conditions: • “day”: 14 hours with illumination at 26° C. • “night”: 10 hours without illumination at 18° C.
(§3) The duration of the respective stress phases was guided mainly by the state of the untreated (=treated with blank formulation without test compound), stressed control plants and thus varied from crop to crop. It was ended (by re-irrigating or transfer to a greenhouse with good growth conditions) as soon as irreversible damage was observed on the untreated, stressed control plants. In the case of dicotyledonous crops, for example oilseed rape and soybeans, the duration of the drought stress phase varied between 3 and 5 days, in the case of monocotyledonous crops, for example wheat, barley or corn, between 6 and 10 days. The duration of the cold stress phase varied between 12 and 14 days.
(§4) The end of the stress phase was followed by an approx. 5-7-day recovery phase, during which the plants were once again kept under good growth conditions in a greenhouse. In order to rule out any influence of the effects observed by any fungicidal action of the test compounds, it was additionally ensured that the tests proceeded without fungal infection and without infection pressure.
(§5) After the recovery phase had ended, the intensities of damage were rated in visual comparison to untreated, unstressed controls of the same age (in the case of drought stress) or the same growth stage (in the case of cold stress). The intensity of damage was first assessed as a percentage (100%=plants have died, 0%=like control plants). These values were then used to calculate the efficacy of the test compounds (=percentage reduction in the intensity of damage as a result of substance application) by the following formula:
(§6) [formula] EF: efficacy (%) DVus: damage value of the untreated, stressed control DVts: damage value of the plants treated with test compound
(§7) The tables A-1 and B-1 to B-4 below list mean values in each case from three results of the same test.
(§8) Efficacies of selected compounds of the formula (I) under drought stress using the examples of HORVS, BRSNS, ZEAMX und TRZAS: […]

BRSNS = test: as above; assay type: in vivo, Brassica napes; settings: efficacy = percentage reduction in intensity of damage, mean of three results
Protocol: as §1, §2, §3, §4, §5, §6, §7, §8

ZEAMX [2] = test: Cold stress test on crop plants in greenhouse, spray application; assay type: in vivo, Zea mays; settings: efficacy = percentage reduction in intensity of damage, mean of three results
Protocol: Seeds of monocotyledonous and dicotyledonous crop plants were laid out in sandy loam in wood-fiber pots, covered with soil and cultivated in a greenhouse under good growth conditions. The test plants were treated at the early leaf stage (BBCH10-BBCH13). To ensure uniform water supply before commencement of stress, the potted plants were supplied with the maximum amount of water immediately beforehand by dam irrigation and, after application, transferred in plastic inserts in order to prevent subsequent, excessively rapid drying. The inventive compounds, formulated in the form of wettable powders (WP), wettable granules (WG), suspension concentrates (SC) or emulsion concentrates (EC), were sprayed onto the green parts of the plants as an aqueous suspension at an equivalent water application rate of 600 l/ha with addition of 0.2% wetting agent (agrotin). Substance application is followed immediately by stress treatment of the plants (cold or drought stress). For cold stress treatment, the plants were kept under the following controlled conditions: • “day”: 12 hours with illumination at 8° C. • “night”: 12 hours without illumination at 1° C. The duration of the respective stress phases was guided mainly by the state of the untreated (=treated with blank formulation without test compound), stressed control plants and thus varied from crop to crop. It was ended (by re-irrigating or transfer to a greenhouse with good growth conditions) as soon as irreversible damage was observed on the untreated, stressed control plants. In the case of dicotyledonous crops, for example oilseed rape and soybeans, the duration of the drought stress phase varied between 3 and 5 days, in the case of monocotyledonous crops, for example wheat, barley or corn, between 6 and 10 days. The duration of the cold stress phase varied between 12 and 14 days. The end of the stress phase was followed by an approx. 5-7-day recovery phase, during which the plants were once again kept under good growth conditions in a greenhouse. In order to rule out any influence of the effects observed by any fungicidal action of the test compounds, it was additionally ensured that the tests proceeded without fungal infection and without infection pressure. After the recovery phase had ended, the intensities of damage were rated in visual comparison to untreated, unstressed controls of the same age (in the case of drought stress) or the same growth stage (in the case of cold stress). The intensity of damage was first assessed as a percentage (100%=plants have died, 0%=like control plants). These values were then used to calculate the efficacy of the test compounds (=percentage reduction in the intensity of damage as a result of substance application) by the following formula: [formula] EF: efficacy (%) DVus: damage value of the untreated, stressed control DVts: damage value of the plants treated with test compound The tables A-1 and B-1 to B-4 below list mean values in each case from three results of the same test. Efficacies of selected compounds of the formula (I) under cold stress using the example of ZEAMX: […]

TRZAS = test: Drought stress test on crop plants in greenhouse, spray application; assay type: in vivo, Triticum aestivum; settings: efficacy = percentage reduction in intensity of damage, mean of three results
Protocol: as §1, §2, §3, §4, §5, §6, §7, §8

In the case of O=c1[nH]c(COc2ccccc2)nc2cc(Cl)ccc12 [I.1-303], the “EF (ZEAMX)” value (ZEAMX [1]; dosage 250 g/ha) is reported as over 5%.

For CN1c2ccccc2C(=O)NC1c1ccoc1 (stereo not drawn) [I.4-85], the “EF (ZEAMX)” value (ZEAMX [1]; dosage 250 g/ha) was over 5%.

For O=c1[nH]c(-c2nc[nH]n2)nc2ccccc12 [I.1-30], the “EF (ZEAMX)” value (ZEAMX [1]; dosage 500 g/ha) was over 5%.

With COc1cccc2c1NC(CCc1ccccc1)NC2=O (stereo not drawn) [I.4-16] the “EF (BRSNS)” value (BRSNS; dosage 250 g/ha) was over 5%.

For O=C1NC(c2ccc(Cl)cc2)Nc2ccccc21 (stereo not drawn) [I.4-71, 2-(4-Chlorophenyl)-2,3-dihydroquinazolin-4(1H)-one], the melting point was 190 °C.

For CCN(CC)CCN1C(=O)c2cccc(OC)c2NC1c1ccc(C(F)(F)F)cc1Cl (stereo not drawn) [I.4-324], the “EF (ZEAMX)” value (ZEAMX [1]; dosage 250 g/ha) was over 5%.

For COc1cc2nc(/C=C/c3cc(OC)c(O)c(OC)c3)[nH]c(=O)c2cc1OC [I.1-429], the “EF (ZEAMX)” value (ZEAMX [2]; dosage 250 g/ha) was over 5%.

For O=C1NC(c2ccc(Cl)cc2)Nc2cccc(F)c21 (stereo not drawn) [I.4-165], the “EF (ZEAMX)” value (ZEAMX [1]; dosage 250 g/ha) was over 5%.

With Cc1cccc2c1NC(c1ccc(C(F)(F)F)cc1)NC2=O (stereo not drawn) [I.4-21] the “EF (ZEAMX)” value (ZEAMX [1]; dosage 1000 g/ha) was over 5%.

In the case of COc1cc2nc(-c3ccoc3)[nH]c(=O)c2cc1OC [I.1-424], the “EF (ZEAMX)” value (ZEAMX [1]; dosage 250 g/ha) is reported as over 5%.

For O=C1NC(c2ccc(F)cc2F)Nc2c(Cl)cccc21 (stereo not drawn) [I.4-175], the “EF (ZEAMX)” value (ZEAMX [1]; dosage 250 g/ha) was over 5%.

For O=c1[nH]c(-c2ccc(Br)cc2)nc2c(Cl)cccc12 [I.1-204], the “EF (ZEAMX)” value (ZEAMX [2]; dosage 25 g/ha) was over 5%.

For O=c1[nH]c(C2CCCC2)nc2c(O)cccc12 [I.1-148], the “EF (ZEAMX)” value (ZEAMX [1]; dosage 500 g/ha) was over 5%.

With Cc1cc(Cl)cc2c(=O)[nH]c(-c3[nH]ncc3Br)nc12 [I.1-165] the “EF (BRSNS)” value (BRSNS; dosage 250 g/ha) was over 5%, the “EF (ZEAMX)” value (ZEAMX [1]; dosage 250 g/ha) was over 5% and the “EF (TRZAS)” value (TRZAS; dosage 250 g/ha) was over 5%.

For O=C1NC(c2ccsc2)Nc2c(Cl)cccc21 (stereo not drawn) [I.4-181], the “EF (BRSNS)” value (BRSNS; dosage 250 g/ha) was over 5% and the “EF (ZEAMX)” value (ZEAMX [1]; dosage 250 g/ha) was over 5%.

For NC(=O)c1cnn2c1[nH]c(=O)c1ccccc12 [I.3-31], the “EF (BRSNS)” value (BRSNS; dosage 25 g/ha) was over 5%, the “EF (ZEAMX)” value (ZEAMX [1]; dosage 250 g/ha) was over 5% and the “EF (ZEAMX)” value (ZEAMX [2]; dosage 250 g/ha) was over 5%. The “EF (TRZAS)” value (TRZAS; dosage 25 g/ha) was over 5%.

In the case of CC(C)c1nc2ccccc2c(=O)[nH]1 [I.1-15], the “EF (ZEAMX)” value (ZEAMX [1]; dosage 500 g/ha) is reported as over 5%.

For Cc1ccc2c(=O)[nH]c(-c3ccc(Cl)cc3)nc2c1 [I.1-318], the “EF (ZEAMX)” value (ZEAMX [1]; dosage 250 g/ha) was over 5%.

For CCOC(=O)c1c(C#N)nn2c1[nH]c(=O)c1ccccc12 [I.3-32], the “EF (ZEAMX)” value (ZEAMX [1]; dosage 250 g/ha) was over 5%.

With CCCCCc1nc2c(OC)cccc2c(=O)[nH]1 [I.1-153] the “EF (BRSNS)” value (BRSNS; dosage 500 g/ha) was over 5% and the “EF (ZEAMX)” value (ZEAMX [1]; dosage 500 g/ha) was over 5%.

With Cn1cccc1-c1nc2cc(Cl)ccc2c(=O)[nH]1 [I.1-197] the “EF (ZEAMX)” value (ZEAMX [1]; dosage 250 g/ha) was over 5% and the “EF (TRZAS)” value (TRZAS; dosage 250 g/ha) was over 5%.

In the case of COc1cccc2c1NC(/C=C/c1ccccc1)NC2=O (stereo not drawn) [I.4-75, 2R,S-8-methoxy-2-[(E)-2-phenylethenyl]-2,3-dihydroquinazolin-4(1H)-one], the “EF (BRSNS)” value (BRSNS; dosage 250 g/ha) is reported as over 5% and the “EF (TRZAS)” value (TRZAS; dosage 250 g/ha) is reported as over 5%.

For O=C1NC(c2ccoc2)Nc2cccc(Cl)c21 (stereo not drawn) [I.4-232], the “EF (BRSNS)” value (BRSNS; dosage 250 g/ha) was over 5% and the “EF (TRZAS)” value (TRZAS; dosage 250 g/ha) was over 5%.

With O=C1NC(c2ccsc2)Nc2cccc(F)c21 (stereo not drawn) [I.4-177] the “EF (ZEAMX)” value (ZEAMX [1]; dosage 250 g/ha) was over 5%.

For O=C1NC(c2ccc(Br)cc2F)Nc2cccc(F)c21 (stereo not drawn) [I.4-227], the “EF (TRZAS)” value (TRZAS; dosage 250 g/ha) was over 5%.

For O=C1NC(CCc2ccccc2)Nc2cccc(F)c21 (stereo not drawn) [I.4-184], the “EF (ZEAMX)” value (ZEAMX [2]; dosage 250 g/ha) was over 5%.
